# Laboratory results reported in PubChem BioAssay AID1918995 (Molecular Pharmacology Branch, DTP, NCI, 2023).
# System: 324938-238-R-J1-PDC complex spheroid growth, % test/control
# Experiment: Anticancer human tumor 324938-238-R-J1-PDC patient-derived bladder carcinoma cell line growth inhibition [AhR]
# Details: for IC50: curve of first compound; for viability, T/C: stronger effect = lower value
# Method in brief: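 Complex tumor spheroids co-cultured with HUVEC and human MSC stroma; AhR antagonists tested in combination with standard-of-care and investigational agents. Top concentration at or near clinical Cmax (else 10 microM), half-log dilutions; growth expressed as percent test/control.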
# [1] = second compound 0.1 µM, first compound 0.0316 µM
# [2] = second compound 0.1 µM, first compound 0.1 µM
# [3] = second compound 0.1 µM, first compound 0.316 µM
# [4] = second compound 0.1 µM, first compound 1 µM
# [5] = second compound 0.1 µM, first compound 3.16 µM
# [6] = second compound 0.1 µM, first compound 10 µM
# [7] = second compound 0.316 µM, first compound 0.0316 µM
# [8] = second compound 0.316 µM, first compound 0.1 µM
# [9] = second compound 0.316 µM, first compound 0.316 µM
# [10] = second compound 0.316 µM, first compound 1 µM
# [11] = second compound 0.316 µM, first compound 3.16 µM
# [12] = second compound 0.316 µM, first compound 10 µM
# [13] = second compound 1 µM, first compound 0.0316 µM
# [14] = second compound 1 µM, first compound 0.1 µM
# [15] = second compound 1 µM, first compound 0.316 µM
# [16] = second compound 1 µM, first compound 1 µM
# [17] = second compound 1 µM, first compound 3.16 µM
# [18] = second compound 1 µM, first compound 10 µM
# [19] = second compound 3.16 µM, first compound 0.0316 µM
# [20] = second compound 3.16 µM, first compound 0.1 µM
# [21] = second compound 3.16 µM, first compound 0.316 µM
# [22] = second compound 3.16 µM, first compound 1 µM
# [23] = second compound 3.16 µM, first compound 3.16 µM
# [24] = second compound 3.16 µM, first compound 10 µM
# [25] = second compound 10 µM, first compound 0.0316 µM
# [26] = second compound 10 µM, first compound 0.1 µM
# [27] = second compound 10 µM, first compound 0.316 µM
# [28] = second compound 10 µM, first compound 1 µM
# [29] = second compound 10 µM, first compound 3.16 µM
# [30] = second compound 10 µM, first compound 10 µM
# 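Further: spheroids exposed to agents for seven days before viability read.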
smiles,measurement,setting,value
CC(C)c1c(-c2ccccc2)nc2c(C#N)c[nH]n2c1=O + Cc1cncc(-c2nc(NCCc3c[nH]c4ccccc34)c3ncn(C(C)C)c3n2)c1,IC50,second compound 0.1 µM,> 10 µM
same,IC50,second compound 0.316 µM,> 10 µM
same,IC50,second compound 1 µM,> 10 µM
same,IC50,second compound 3.16 µM,> 10 µM
same,IC50,second compound 10 µM,< 0.0316 µM
same,"viability, T/C",[1],127%
same,"viability, T/C",[2],85.5%
same,"viability, T/C",[3],95.3%
same,"viability, T/C",[4],63.9%
same,"viability, T/C",[5],69.6%
same,"viability, T/C",[6],146%
same,"viability, T/C",[7],124%
same,"viability, T/C",[8],129%
same,"viability, T/C",[9],89.1%
same,"viability, T/C",[10],102%
same,"viability, T/C",[11],113%
same,"viability, T/C",[12],96.4%
same,"viability, T/C",[13],119%
same,"viability, T/C",[14],85.3%
same,"viability, T/C",[15],83.5%
same,"viability, T/C",[16],90.8%
same,"viability, T/C",[17],130%
same,"viability, T/C",[18],102%
same,"viability, T/C",[19],101%
same,"viability, T/C",[20],68.8%
same,"viability, T/C",[21],76.8%
same,"viability, T/C",[22],63.8%
same,"viability, T/C",[23],75.8%
same,"viability, T/C",[24],102%
same,"viability, T/C",[25],2.26%
same,"viability, T/C",[26],3.22%
same,"viability, T/C",[27],2.43%
same,"viability, T/C",[28],3.77%
same,"viability, T/C",[29],3.8%
same,"viability, T/C",[30],1.68%
CC1COCCN1c1cc(-c2ccnn2C)c2ccnc(-c3ccn[nH]3)c2n1 (stereo not given) + Cc1cncc(-c2nc(NCCc3c[nH]c4ccccc34)c3ncn(C(C)C)c3n2)c1,IC50,second compound 0.1 µM,> 1 µM
same,IC50,second compound 0.316 µM,> 1 µM
same,IC50,second compound 1 µM,> 1 µM
same,IC50,second compound 3.16 µM,> 1 µM
same,IC50,second compound 10 µM,< 0.00316 µM
same,"viability, T/C","second compound 0.1 µM, first compound 0.00316 µM",87.9%
same,"viability, T/C","second compound 0.1 µM, first compound 0.01 µM",123%
same,"viability, T/C",[1],112%
same,"viability, T/C",[2],89.6%
same,"viability, T/C",[3],81.2%
same,"viability, T/C",[4],54.9%
same,"viability, T/C","second compound 0.316 µM, first compound 0.00316 µM",121%
same,"viability, T/C","second compound 0.316 µM, first compound 0.01 µM",150%
same,"viability, T/C",[7],114%
same,"viability, T/C",[8],81.3%
same,"viability, T/C",[9],81.6%
same,"viability, T/C",[10],70.2%
same,"viability, T/C","second compound 1 µM, first compound 0.00316 µM",114%
same,"viability, T/C","second compound 1 µM, first compound 0.01 µM",122%
same,"viability, T/C",[13],137%
same,"viability, T/C",[14],88%
same,"viability, T/C",[15],72.2%
same,"viability, T/C",[16],53.3%
same,"viability, T/C","second compound 3.16 µM, first compound 0.00316 µM",67.2%
same,"viability, T/C","second compound 3.16 µM, first compound 0.01 µM",60.2%
same,"viability, T/C",[19],77.6%
same,"viability, T/C",[20],70.6%
same,"viability, T/C",[21],67.8%
same,"viability, T/C",[22],72.2%
same,"viability, T/C","second compound 10 µM, first compound 0.00316 µM",4.75%
same,"viability, T/C","second compound 10 µM, first compound 0.01 µM",5.66%
same,"viability, T/C",[25],2.57%
same,"viability, T/C",[26],2.16%
same,"viability, T/C",[27],2.35%
same,"viability, T/C",[28],5.11%
COc1ccc([C@@H](O)c2cc(-c3ncnc4cc(N5CCOCC5)ccc34)c(F)cc2Cl)nn1 + Cc1cncc(-c2nc(NCCc3c[nH]c4ccccc34)c3ncn(C(C)C)c3n2)c1,IC50,second compound 0.1 µM,8.95 µM
same,IC50,second compound 0.316 µM,7.37 µM
same,IC50,second compound 1 µM,> 10 µM
same,IC50,second compound 3.16 µM,> 10 µM
same,IC50,second compound 10 µM,< 0.0316 µM
same,"viability, T/C",[1],152%
same,"viability, T/C",[2],91.7%
same,"viability, T/C",[3],96.2%
same,"viability, T/C",[4],89.5%
same,"viability, T/C",[5],63.5%
same,"viability, T/C",[6],51.4%
same,"viability, T/C",[7],116%
same,"viability, T/C",[8],125%
same,"viability, T/C",[9],81.6%
same,"viability, T/C",[10],94.9%
same,"viability, T/C",[11],81%
same,"viability, T/C",[12],38.1%
same,"viability, T/C",[13],137%
same,"viability, T/C",[14],112%
same,"viability, T/C",[15],119%
same,"viability, T/C",[16],86.1%
same,"viability, T/C",[17],79.2%
same,"viability, T/C",[18],64.2%
same,"viability, T/C",[19],108%
same,"viability, T/C",[20],80.2%
same,"viability, T/C",[21],86.3%
same,"viability, T/C",[22],69.8%
same,"viability, T/C",[23],43.4%
same,"viability, T/C",[24],58.5%
same,"viability, T/C",[25],3.67%
same,"viability, T/C",[26],4.08%
same,"viability, T/C",[27],3.62%
same,"viability, T/C",[28],2.73%
same,"viability, T/C",[29],3.64%
same,"viability, T/C",[30],3.08%
O=C(C=Cn1cnc(-c2cc(C(F)(F)F)cc(C(F)(F)F)c2)n1)NNc1cnccn1 + Cc1cncc(-c2nc(NCCc3c[nH]c4ccccc34)c3ncn(C(C)C)c3n2)c1,IC50,second compound 0.1 µM,> 3 µM
same,IC50,second compound 0.316 µM,0.639 µM
same,IC50,second compound 1 µM,1.1 µM
same,IC50,second compound 3.16 µM,0.74 µM
same,IC50,second compound 10 µM,< 0.00949 µM
same,"viability, T/C","second compound 0.1 µM, first compound 0.00949 µM",86.6%
same,"viability, T/C","second compound 0.1 µM, first compound 0.03 µM",94.1%
same,"viability, T/C","second compound 0.1 µM, first compound 0.0949 µM",66.5%
same,"viability, T/C","second compound 0.1 µM, first compound 0.3 µM",56.2%
same,"viability, T/C","second compound 0.1 µM, first compound 0.949 µM",53.2%
same,"viability, T/C","second compound 0.1 µM, first compound 3 µM",44.3%
same,"viability, T/C","second compound 0.316 µM, first compound 0.00949 µM",95.5%
same,"viability, T/C","second compound 0.316 µM, first compound 0.03 µM",90.8%
same,"viability, T/C","second compound 0.316 µM, first compound 0.0949 µM",110%
same,"viability, T/C","second compound 0.316 µM, first compound 0.3 µM",64.9%
same,"viability, T/C","second compound 0.316 µM, first compound 0.949 µM",47.1%
same,"viability, T/C","second compound 0.316 µM, first compound 3 µM",37.3%
same,"viability, T/C","second compound 1 µM, first compound 0.00949 µM",112%
same,"viability, T/C","second compound 1 µM, first compound 0.03 µM",94.7%
same,"viability, T/C","second compound 1 µM, first compound 0.0949 µM",80.7%
same,"viability, T/C","second compound 1 µM, first compound 0.3 µM",79.7%
same,"viability, T/C","second compound 1 µM, first compound 0.949 µM",50.4%
same,"viability, T/C","second compound 1 µM, first compound 3 µM",31.4%
same,"viability, T/C","second compound 3.16 µM, first compound 0.00949 µM",120%
same,"viability, T/C","second compound 3.16 µM, first compound 0.03 µM",103%
same,"viability, T/C","second compound 3.16 µM, first compound 0.0949 µM",93.1%
same,"viability, T/C","second compound 3.16 µM, first compound 0.3 µM",60.6%
same,"viability, T/C","second compound 3.16 µM, first compound 0.949 µM",42.3%
same,"viability, T/C","second compound 3.16 µM, first compound 3 µM",47.6%
same,"viability, T/C","second compound 10 µM, first compound 0.00949 µM",16.9%
same,"viability, T/C","second compound 10 µM, first compound 0.03 µM",7.37%
same,"viability, T/C","second compound 10 µM, first compound 0.0949 µM",15%
same,"viability, T/C","second compound 10 µM, first compound 0.3 µM",20.5%
same,"viability, T/C","second compound 10 µM, first compound 0.949 µM",22.1%
same,"viability, T/C","second compound 10 µM, first compound 3 µM",25.8%
